Source: article PMC11855827, “High-Throughput Screening of Five Compound Libraries for Anthelmintic Activity and Toxicity Leads to the Discovery of Two Flavonoid Compounds” (International Journal of Molecular Sciences, 2025)
“And” between values parts separate entries of the source, which are not always exact repeats. Equal entries are not always repeated.

Test system: C. elegans
Settings: Table S2, C. elegans SS assay, 110 μM, averages of 4 data points

| Structure (SMILES) | Percentage of motility inhibition 0 h | Percentage of motility inhibition 24 h |
| --- | --- | --- |
| CO[C@@H]1C=C2[C@@H]3CC(C)(C)CC[C@]3(CO)[C@H](O)C[C@@]2(C)[C@]2(C)CC[C@H]3[C@](C)(CO)[C@@H](O[C@@H]4O[C@H](C)[C@H](O)[C@H](O[C@@H]5O[C@H](CO)[C@@H](O)[C@H](O)[C@H]5O)[C@H]4O)CC[C@]3(C)[C@@H]12 [Saikosaponin B4] | 13% | 36% |
| Oc1ccc([C@H]2Oc3cc(O)cc(O)c3C[C@H]2O)cc1 [(‐)‐Epiafzelechin] | 13% | 42% |
| COc1cc2c(cc1OC)[C@H]1Cc3ccc(OC)c(OC)c3CN1CC2 [D‐Tetrahydropalmatine] | 0% | 0% |
| C[C@@H]1O[C@@H](O[C@H]2[C@H](O[C@H]3CC[C@@]4(C)[C@@H](CC[C@]5(C)[C@@H]4CC=C4[C@@H]6CC(C)(C)CC[C@]6(C(=O)O)CC[C@]45C)[C@]3(C)CO)OC[C@H](O[C@@H]3O[C@H](CO)[C@@H](O)[C@H](O)[C@H]3O)[C@@H]2O)[C@H](O)[C@H](O)[C@H]1O [Pulsatilla saponin D] | 0% | 0% |
| Br.COc1ccc2c3c1O[C@H]1C[C@@H](O)C=C[C@@]31CCN(C)C2 [Galanthamine (hydrobromide)] | 2% and 0% |  |
| C/C=C1/[C@H](O[C@@H]2O[C@H](CO)[C@@H](O)[C@H](O)[C@H]2O)OC=C(C(=O)OC)[C@H]1CC(=O)OC[C@H]1O[C@@H](OCCc2ccc(OC(=O)C[C@@H]3C(C(=O)OC)=CO[C@@H](O[C@@H]4O[C@H](CO)[C@@H](O)[C@H](O)[C@H]4O)/C3=C/C)cc2)[C@H](O)[C@@H](O)[C@@H]1O [GL3] | 0% | 18% |
| C=CC1CNC(=S)O1 (stereo not drawn) [Epigoitrin] | 6% | 0% |
| COc1cc2c3c(c1OC)-c1ccccc1C[C@H]3[N+](C)(C)CC2 [N‐Methylnuciferine] | 0% | 0% |
| COc1c(C(C)C)cc2c(c1O)C1(C(=O)O)CCCC(C)(C)C1CC2 (stereo not drawn) [12-O-Methylcarnosic acid] | 5% | 11% |
| O=c1c(-c2ccc(O)c(O)c2)coc2c([C@@H]3O[C@H](CO)[C@@H](O)[C@H](O)[C@H]3O)c(O)ccc12 [3'‐Hydroxypuerarin] | 1% | 0% |
| CC1(C)CC[C@]2(C(=O)O)CC[C@]3(C)C(=CC[C@@H]4[C@@]5(C)CC[C@H](O[C@@H]6O[C@H](C(=O)O)[C@@H](O)[C@H](O[C@@H]7OC[C@@H](O)[C@H](O)[C@H]7O)[C@H]6O)C(C)(C)[C@@H]5CC[C@]43C)[C@@H]2C1 [Momordin Ic] | 12% | 4% |
| CC(C)=CCc1c(O)cc(O)c2c(=O)c(O[C@@H]3O[C@@H](C)[C@H](O)[C@@H](O)[C@H]3O)c(-c3ccc(O)cc3)oc12 [IKarisoside A] | 32% | 5% |
| Nc1ncnc(N[C@@H]2O[C@H](CO)[C@@H](O)[C@H]2O)c1[N+](=O)[O-] [Clitocine] | 0% | 4% |
| CN1CCCN=C1/C=C/c1cccc(O)c1.O=C(O)c1cc2ccccc2c(Cc2c(O)c(C(=O)O)cc3ccccc23)c1O [Oxantel (pamoate)] | 54% | 33% |
| CO[C@H]1c2cc(C(C)C)c(O)c(O)c2[C@@]23CCCC(C)(C)[C@@H]2[C@@H]1OC3=O [7-Methoxyrosmanol] | 12% | 18% |
| C[C@H](CC[C@@H](O[C@@H]1O[C@H](CO[C@@H]2O[C@H](CO)[C@@H](O)[C@H](O)[C@H]2O)[C@@H](O)[C@H](O)[C@H]1O[C@@H]1O[C@H](CO)[C@@H](O)[C@H](O)[C@H]1O)C(C)(C)O)[C@H]1CC[C@@]2(C)[C@@H]3CC=C4[C@@H](CC[C@H](O[C@@H]5O[C@H](CO[C@@H]6O[C@H](CO)[C@@H](O)[C@H](O)[C@H]6O)[C@@H](O)[C@H](O)[C@H]5O)C4(C)C)[C@]3(C)[C@H](O)C[C@]12C [Mogroside V] | 19% | 12% |
| C[C@@H]1O[C@@H](O[C@H]2[C@H](O[C@H]3[C@H](O[C@H]4CC[C@]5(C)[C@H]6CC=C7[C@@H]8CC(C)(C)CC[C@]8(C(=O)O)CC[C@@]7(C)[C@]6(C)CC[C@H]5C4(C)C)OC[C@H](O)[C@@H]3O)O[C@H](CO)[C@@H](O)[C@@H]2O)[C@H](O)[C@H](O)[C@H]1O [Raddeanin A] | 4% | 6% |

| Structure (SMILES) | Percentage of motility inhibition 0 h | Percentage of motility inhibition 24 h |
| --- | --- | --- |
| CO/N=C(\C(=O)N[C@@H]1C(=O)N2C(C(=O)OCOC(=O)C(C)(C)C)=C(/C=C\c3scnc3C)CS[C@H]12)c1csc(N)n1 [Cefditoren (Pivoxil)] | 36% | 1% |
| C=C1C(=O)O[C@@H]2C[C@@]3(C)CCC[C@H](C)C3=C[C@H]12 [Alantolactone] | 6% | 29% |
| Nc1ncnc2c1ncn2[C@H]1C[C@H](O)[C@@H](COP(=O)([O-])OP(=O)([O-])OP(=O)([O-])O)O1.[Na+].[Na+].[Na+] | 21% | 0% |
| [Cl-].c1c2c(cc3c1OCO3)-c1cc3cc4c(cc3c[n+]1CC2)OCO4 [Pseudocoptisine (chloride)] | 0% | 14% |
| CC(Cc1ccc(O)c(O)c1)C(C)Cc1ccc(O)c(O)c1 (stereo not drawn) [Nordihydroguaiaretic acid] | 8% | 21% |
| NCCc1c[nH]cn1.O=P(O)(O)O.O=P(O)(O)O [Histamine (phosphate)] | 6% and 9% |  |
| C=C(CC[C@@H](C(=O)O)[C@H]1[C@H](O)C[C@@]2(C)C3=CC[C@H]4C(C)(C)C(=O)CC[C@]4(C)C3=CC[C@]12C)C(C)C [Polyporenic acid C] | 30% | 12% |
| CCN[C@@H]1C[C@H](N)[C@@H](O[C@H]2OC(CN)=CC[C@H]2N)[C@H](O)[C@H]1O[C@H]1OC[C@](C)(O)[C@H](NC)[C@H]1O.CCN[C@@H]1C[C@H](N)[C@@H](O[C@H]2OC(CN)=CC[C@H]2N)[C@H](O)[C@H]1O[C@H]1OC[C@](C)(O)[C@H](NC)[C@H]1O.O=S(=O)(O)O.O=S(=O)(O)O.O=S(=O)(O)O.O=S(=O)(O)O.O=S(=O)(O)O [Netilmicin (sulfate)] | 0% | 1% |
| C=C1[C@@H]2CC[C@H]3[C@]4(C)C[C@H](O[C@H]5O[C@@H](CO)[C@H](OS(=O)(=O)[O-])[C@@H](OS(=O)(=O)[O-])[C@@H]5OC(=O)CC(C)C)C[C@@](C(=O)[O-])(C(=O)O)[C@H]4CC[C@]3(C2)[C@H]1O.[K+].[K+].[K+] [Carboxyatractyloside (tripotassium)] | 23% | 23% |
| C[C@@H]1CC[C@]2(C(=O)O[C@@H]3O[C@H](CO)[C@@H](O)[C@H](O)[C@H]3O)CC[C@]3(C)C(=CC[C@@H]4[C@@]5(C)C[C@@H](O)[C@H](O)[C@@](C)(CO)[C@@H]5CC[C@]43C)[C@@H]2[C@]1(C)O [Niga-ichigoside F1] | 0% | 1% |
| CN[C@@H]1[C@H](O[C@H]2[C@H](O[C@H]3[C@H](O)[C@@H](O)[C@H](NC(=N)N)[C@@H](O)[C@@H]3NC(=N)N)O[C@@H](C)[C@]2(O)CO)O[C@@H](CO)[C@H](O)[C@H]1O.CN[C@@H]1[C@H](O[C@H]2[C@H](O[C@H]3[C@H](O)[C@@H](O)[C@H](NC(=N)N)[C@@H](O)[C@@H]3NC(=N)N)O[C@@H](C)[C@]2(O)CO)O[C@@H](CO)[C@H](O)[C@H]1O.O=S(=O)(O)O.O=S(=O)(O)O.O=S(=O)(O)O [Dihydrostreptomycin (sulfate)] | 0% | 0% |
| COc1cc(O)cc(O)c1C(=O)/C=C/c1ccccc1 [(E)‐Cardamonin] | 13% | 8% |
| CC(C)=CCN=C(N)N.Cl [Galegine (hydrochloride)] | 0% | 0% |
| COC(=O)C1=CC[C@@]23CC[C@@H]([C@@](C)(/C=C/C=C(\C)C(=O)O[C@@H]4O[C@H](CO)[C@@H](O)[C@H](O)[C@H]4O)OC2=O)[C@@]3(OC(C)=O)CC1 [Pseudolaric acid B β-D-glucoside] | 4% | 0% |
| O=c1cc(-c2ccc(O)c(O)c2)oc2cc(O)cc(O[C@@H]3O[C@H](CO)[C@@H](O)[C@H](O)[C@H]3O)c12 [Luteolin 5‐O‐glucoside] | 8% | 0% |
| O=C(O)[C@H]1O[C@@H](Oc2cc(-c3cc(=O)c4c(O)cc(O)cc4o3)ccc2O)[C@H](O)[C@@H](O)[C@@H]1O [Luteolin‐3‐O‐beta‐D‐glucuronide] | 0% | 26% |
| C=C(C)[C@@H]1CC[C@]2(C=O)CC[C@]3(C)[C@H](CC[C@@H]4[C@@]5(C)CC[C@H](O)C(C)(C)[C@@H]5CC[C@]43C)[C@@H]12 [Betulinaldehyde] | 7% and 0% | 3% and 9% |
